Laboratory results: PMC6629785, “Synthesis and Pharmacological Evaluation of a Novel Peptide Based on Anemonia sulcata BDS-I Toxin as a New KV3.4 Inhibitor Exerting a Neuroprotective Effect Against Amyloid-β Peptide” (Frontiers in Chemistry, 2019)
Ends that are not written are not given here.

System: caspase-3 activation
Assay: Western blot of cleaved (activated) caspase-3 after Aβ1−42 exposure
Format: cell-based, Rat
Conditions: peptide 100 nM, 30 min pre-treatment; Aβ1−42 oligomers 5 μM, 24 h; western blot densitometry, 3 sessions
Method: Rat pheochromocytoma cells (PC-12 cells) were grown as previously described (Pannaccione et al., [2005], [2007]). For all the experiments, cells were seeded at low density on glass cover-slips coated with poly-L-lysine (50 μg/ml). Differentiation of PC-12 cells was achieved by treatment with neuronal growth factor (NGF) 2.5 S (50 ng/ml) for 7–9 days (Greene and Tischler, [1976]). For electrophysiological experiments, cells were seeded on glass cover-slips and used after 7–9 days of NGF. […]
NGF-differentiated PC-12 and CHO cells were washed in phosphate buffered saline (PBS) and collected by gentle scraping in ice-cold RIPA buffer containing in mM: 50 Tris pH 7.4, 100 NaCl, 1 EGTA, 1 PMSF, 1 sodium orthovanadate, 1 NaF, 0.5% NP-40, and 0.2% SDS supplemented with protease inhibitor cocktail II. […] The protein content of resulting supernatant was determined using the Bradford reagent. […]
The peptide used in our study was synthesized by INBIOS (Pozzuoli, Naples, Italy) using the Aβ1−42 sequence of human APP [UniProtKB-P05067 (A4_HUMAN)]. The purity of the peptide was assessed by high-performance liquid chromatography (>95% pure) and the amino acid composition was verified by mass spectrometry. […] The pre-aggregated preparation of Aβ oligomers was analyzed in SDS-PAGE using the rabbit monoclonal anti-Aβ on precast gels 4-20%. […]

| Substance | effect on Aβ1−42-induced caspase-3 activation |
| --- | --- |
| H-GSAFAPAA-OH [BDS-I[1-8scr]] | did not |
| AAPAFASG [BDS-I[1-8]] | prevented |
